What was measured:
[1] = test system: Dengue 2, New Guinea strain (NGC); test: DENV-2 moDC EC50 (qPCR of viral RNA in infected moDCs); format: cell-based, New Guinea strain (NGC); human moDCs; settings: Dengue virus, human moDCs infected with Dengue 2 NGC, MOI=0.1, 48 hours
Description: Example 82. DENV-2 moDC EC50
Human monocyte-derived dendritic cells (moDCs) were derived from CD14+ monocytes (AllCells) cultured in Human Mo-DC Differentiation medium containing GM-CSF and IL-4 (Miltenyi Biotec). On day 7, moDCs were harvested by mechanical disruption, washed and suspended in serum-free RPMI. moDCs were infected with Vero-derived Dengue 2, New Guinea strain (NGC) at a MOI=0.1 for two hours in serum-free RPMI with gentle agitation at 37° C. Cells were washed and resuspended in 10% serum-containing RPMI (Gibco, supplemented with sodium pyruvate, NEAA, Penicillin-Streptomycin). […] were plated in triplicate in 96-well plates with compounds dispensed at graded doses (Hewlett-Packard D300 Digital Dispenser). All wells were normalized to 0.25% DMSO. At 48 hours, cells were washed with 1×PBS and all supernatants removed. Total RNA was extracted using RNEasy 96 plates (Qiagen) and used to generate first-strand cDNA using XLT cDNA 5× Supermix (QuantaBio). cDNA was used as a template in a Taqman qPCR duplex reaction specific to DENV2 viral and GAPDH gene expression. EC50 values were determined using Prism Graphpad software, with normalization to a positive control and no compound negative control wells.

[2] = moDC CC50 (CellTiter Glo viability); format: cell-based, Human; settings: human, uninfected moDCs
Description: Human monocyte-derived dendritic cells (moDCs) were derived from CD14+ monocytes (AllCells) cultured in Human Mo-DC Differentiation medium containing GM-CSF and IL-4 (Miltenyi Biotec). On day 7, moDCs were harvested by mechanical disruption, washed and cultured in triplicate at […] cells/well in 96-well plates with compounds dispensed at graded doses (Hewlett-Packard D300 Digital Dispenser). All wells were normalized to 0.25% DMSO. After 48 hours, CellTiter Glo (Promega) was added and incubated for 10 minutes at room temp before reading on a luminometer. % viability curves were calculated against no compound and no cell control wells. CC50 values were determined using Prism Graphpad software.

[3] = test system: Dengue serotype 2 New Guinea C (NGC) strain; test: DENV-2 Huh-7 EC50 (qPCR of viral RNA in infected Huh7 cells); format: cell-based; settings: Dengue virus, DENV2, Huh-7, Huh7 cells infected with Dengue serotype 2 NGC, MOI=0.1, 48 hours
Description: Huh7 (Human hepatocarcinoma 7) cells were maintained in 10% FCS-containing DMEM complete media. On the day of the assay, cells were trypsinized (0.1% Trypsin-EDTA), washed and infected for 2 hours in serum-free DMEM with Dengue serotype 2 New Guinea C (NGC) strain at MOI=0.1 with gentle agitation at 37° C. After 2 hours, cells were washed with serum-free media and suspended in 10% FCS-containing DMEM (Gibco, supplemented with sodium pyruvate, NEAA, Penicillin-Streptomycin). 10^5 cells were plated in triplicate in 96-well plates with compounds dispensed at graded doses (Hewlett-Packard D300 Digital Dispenser). All wells were normalized to 0.25% DMSO. At 48 hours, cells were washed with 1× PBS and all supernatants removed. Total RNA was extracted using RNEasy 96 plates (Qiagen) and used to generate first-strand cDNA using XLT cDNA 5× Supermix (QuantaBio). cDNA was used as a template in a Taqman qPCR duplex reaction specific to DENV2 viral and GAPDH gene expression. EC50 values were determined using Prism Graphpad software, with normalization to a positive control and no compound negative control wells.

[4] = Huh-7 CC50 (CellTiter Glo viability); format: cell-based, Human; settings: human, Huh7 hepatocarcinoma cells
Description: Human hepatocarcinoma 7 (Huh7) cells were maintained in 10% FCS-containing complete DMEM. On day of assay, cells were trypsinized with 0.1% Trypsin-EDTA, washed and cultured in triplicate at 1-2×10^4 cells/well in 96-well plates with compounds dispensed at graded doses (Hewlett-Packard D300 Digital Dispenser). All wells were normalized to 0.25% DMSO. After 48 hours, CellTiter Glo (Promega) was added and incubated for 10 minutes at room temp before reading on a luminometer. % viability curves were calculated against no compound and no cell control wells. CC50 values were determined using Prism Graphpad software.

[5] = test system: RSV strain A2; test: RSV HEp-2 EC50 (infectious cytopathic cell protection assay); format: cell-based, RSV strain A2; HEp-2 cells; settings: human respiratory syncytial virus, HEp-2, 96 h, read-out: RSV Hep-2 EC50
Description: Example 86. RSV HEp-2 EC50
Antiviral activity against RSV is determined using an infectious cytopathic cell protection assay in HEp-2 cells. In this assay, compounds inhibiting viral infection and/or replication produce a cytoprotective effect against the virus-induced cell killing that can be quantified using a cell viability reagent. The techniques used here are novel adaptations of methods described in published literature (Chapman et al., Antimicrob Agents Chemother. 2007, 51(9):3346-53.)
HEp-2 cells are obtained from ATCC (Manassas, VI) and maintained in MEM media supplemented with 10% fetal bovine serum and penicillin/streptomycin. Cells are passaged twice a week and kept at subconfluent stage. Commercial stock of RSV strain A2 (Advanced Biotechnologies, Columbia, MD) is titered before compound testing to determine the appropriate dilution of the virus stock that generates desirable cytopathic effect in HEp-2 cells.
For antiviral tests, HEp-2 cells are grown in large cell culture flasks to near confluency but not fully so. The compounds to be tested are prediluted in DMSO in 384-well compound dilution plates, either in an 8 or 40 sample per plate standardized dose response format. 3-fold serial dilution increments of each test compound are prepared in the plates and test samples are transferred via acoustic transfer apparatus (Echo, Labcyte) at 100 nL per well into cell culture assay 384-well plates. Each compound dilution is transferred in single or quadruplicate samples into dry assay plates, which are stored until assay is ready to go. The positive and negative controls are laid out in opposite on ends of the plate in vertical blocks (1 column).
Subsequently, an infectious mixture is prepared using an appropriate dilution of virus stock previously determined by titration with cells at a density of 50,000/mL and 20 uL/well is added to test plates w/compounds via automation (uFlow, Biotek). Each plate includes negative and positive controls (16 replicates each) to create 0% and 100% virus inhibition standards, respectively. Following the infection with RSV, testing plates are incubated for 4 days in a 37° C. cell culture incubator. After the incubation, a cell viability reagent, Cell TiterGlo (Promega, Madison, WI) is added to the assay plates, which are incubated briefly, and a luminescent readout is measured (Envision, Perkin Elmer) in all the assay plates. The RSV-induced cytopathic effect, percentage inhibition, is determined from the levels of remaining cell viability. […] Various potent anti-RSV tool compounds are used as positive controls for antiviral activity.

[6] = HEp-2 CC50 (cytotoxicity in uninfected HEp-2 cells); format: cell-based; settings: human, CellTiter Glo
Description: Instead, an uninfected cell mixture at the same density is added at 20 uL/well to plates containing prediluted compounds, also at 100 nL/sample. Assay plates are then incubated for 4 days followed by a cell viability test using the same CellTiter Glo reagent addition and measurement of luminescent readouts. Untreated cell and cells treated at 2 μM puromycin (Sigma, St. Louis, MO) serve as 100% and 0% cell viability control, respectively.

| SMILES | EC50 [1] | CC50 at 48 h [2] | EC50 [3] | CC50 at 48 h [4] | EC50 [5] | CC50 at 4 days [6] |
| --- | --- | --- | --- | --- | --- | --- |
| CC(C)C(=O)O[C@H]1[C@H](c2ccc3c(N)ncnn23)O[C@](CF)(COP(=O)(N[C@@H](C)C(=O)OC2CCCCC2)Oc2ccccc2)[C@H]1OC(=O)C(C)C (single isomer, unassigned) [Example 63] | 321 nM | 5600 nM | 602 nM | 10700 nM | 2420 nM | 19100 nM |
| C[C@H](NP(=O)(OC[C@@]1(CF)O[C@@H](c2ccc3c(N)ncnn23)[C@H](O)[C@@H]1O)Oc1ccccc1)C(=O)OCC(C)(C)C (stereo partly drawn) [Example 3, neopentyl ((((2R,3S,4R,5S)-5-(4-aminopyrrolo[2,1-f][1,2,4]triazin-7-yl)-2-(fluoromethyl)-3,4-dihydroxytetrahydrofuran-2-yl)methoxy)(phenoxy)phosphoryl)-L-alaninate] | 156 nM | > 11100 nM | 92 nM | > 25000 nM | 77 nM | > 100000 nM |
| C[C@H](NP(=O)(OC[C@@]1(CF)O[C@@H](c2ccc3c(N)ncnn23)[C@H](O)[C@@H]1O)Oc1ccccc1)C(=O)OCCC(C)(C)C (stereo partly drawn) [Example 4, 3,3-dimethylbutyl ((((2R,3S,4R,5S)-5-(4-aminopyrrolo[2,1-f][1,2,4]triazin-7-yl)-2-(fluoromethyl)-3,4-dihydroxytetrahydrofuran-2-yl)methoxy)(phenoxy)phosphoryl)-L-alaninate] | 58 nM | 4780 nM | 132 nM | 17800 nM | 29 nM | > 100000 nM |
| CCC(C)(C)COC(=O)[C@H](C)NP(=O)(OC[C@@]1(CF)O[C@@H](c2ccc3c(N)ncnn23)[C@H](O)[C@@H]1O)Oc1ccccc1 (stereo partly drawn) [Example 7, 2,2-dimethylbutyl ((((2R,3S,4R,5S)-5-(4-aminopyrrolo[2,1-f][1,2,4]triazin-7-yl)-2-(fluoromethyl)-3,4-dihydroxytetrahydrofuran-2-yl)methoxy)(phenoxy)phosphoryl)-L-alaninate] | 40 nM | 6690 nM | 159 nM | > 25000 nM | 24 nM | > 100000 nM |
| CCOC(=O)[C@H](C)NP(=O)(OC[C@@]1(CF)O[C@@H](c2ccc3c(N)ncnn23)[C@H](O)[C@@H]1O)Oc1ccccc1 (stereo partly drawn) [Example 13, ethyl ((((2R,3S,4R,5S)-5-(4-aminopyrrolo[2,1-f][1,2,4]triazin-7-yl)-2-(fluoromethyl)-3,4-dihydroxytetrahydrofuran-2-yl)methoxy)(phenoxy)phosphoryl)-L-alaninate] | 274 nM | > 10200 nM | 487 nM | > 25000 nM | 844 nM | > 89400 nM |
| C[C@H](NP(=O)(OC[C@@]1(CF)O[C@@H](c2ccc3c(N)ncnn23)[C@H](O)[C@@H]1O)Oc1ccccc1)C(=O)OC1CCCCC1 (stereo partly drawn) [Example 14, cyclohexyl ((((2R,3S,4R,5S)-5-(4-aminopyrrolo[2,1-f][1,2,4]triazin-7-yl)-2-(fluoromethyl)-3,4-dihydroxytetrahydrofuran-2-yl)methoxy)(phenoxy)phosphoryl)-L-alaninate] | 165 nM | > 7760 nM | 205 nM | > 25000 nM | 187 nM | > 100000 nM |
| CCC(=O)O[C@H]1[C@H](c2ccc3c(N)ncnn23)O[C@](CF)(CO[P@@](=O)(N[C@@H](C)C(=O)OC(C)C)Oc2ccccc2)[C@H]1OC(=O)CC [Example 22, (2R,3S,4S,5S)-5-(4-aminopyrrolo[2,1-f][1,2,4]triazin-7-yl)-2-(fluoromethyl)-2-((((S)-(((S)-1-isopropoxy-1-oxopropan-2-yl)amino)(phenoxy)phosphoryl)oxy)methyl) tetrahydrofuran-3,4-diyl dipropionate] | 735 nM | > 23600 nM | 1030 nM | > 25000 nM | 2360 nM | 71700 nM |
| CC(C)OC(=O)[C@H](C)N[P@](=O)(OC[C@@]1(CF)O[C@@H](c2ccc3c(N)ncnn23)[C@H](OC(=O)C(C)C)[C@@H]1OC(=O)C(C)C)Oc1ccccc1 [Example 23, (2R,3S,4S,5S)-5-(4-aminopyrrolo[2,1-f][1,2,4]triazin-7-yl)-2-(fluoromethyl)-2-((((S)-(((S)-1-isopropoxy-1-oxopropan-2-yl)amino)(phenoxy)phosphoryl)oxy)methyl) tetrahydrofuran-3,4-diyl bis(2-methylpropanoate)] | 387 nM | 10900 nM | 1800 nM | > 23200 nM | 4320 nM | 26300 nM |
| CCCCOCCOC(=O)[C@H](C)NP(=O)(OC[C@@]1(CF)O[C@@H](c2ccc3c(N)ncnn23)[C@H](O)[C@@H]1O)Oc1ccccc1 (stereo partly drawn) [Example 42, 2-butoxyethyl ((((2R,3S,4R,5S)-5-(4-aminopyrrolo[2,1-f][1,2,4]triazin-7-yl)-2-(fluoromethyl)-3,4-dihydroxytetrahydrofuran-2-yl)methoxy)(phenoxy)phosphoryl)-L-alaninate] | 258 nM | 5330 nM | 667 nM | 21100 nM | 860 nM | > 100000 nM |

Source: patent US12030903B2, “Antiviral compounds” (Gilead Sciences, Inc., priority 2020, dated 2024)
